# Experiments:
# Type in all cases: in vivo
# Hordeum vulgare (barley) [1] = experiment: Post-emergence herbicide action and safener action, barley; details: safener (Ia) 100 g of AS/ha, HORVU
# Description: (§1) The damage to the plants is scored visually using a scale of 0-100%, in comparison to control plants: 0%=no noticeable effect compared to the untreated plant 100%=the treated plants dies. Seeds or rhizome pieces of monocotyledonous and dicotyledonous harmful plants and crop plants are placed in sandy loam soil in plastic pots, covered with soil and cultivated in the greenhouse under good growth conditions. Alternatively, harmful plants encountered in paddy rice cultivation are cultivated in pots in which the surface of the soil is covered by up to 2 cm of water. Ten to twenty days after sowing, the test plants are treated at the one to three-leaf stage. The herbicide/safener active compound combinations according to the invention, formulated as water-soluble powders or suspensions, and in parallel tests the individual active compounds formulated in a corresponding manner, are sprayed at various dosages at a water application rate of 300 l/ha (converted) onto the green parts of the plants, and, after the test plants were left to stand in the greenhouse for about 2 to 3 weeks under optimum growth conditions, the effect of the preparations is scored visually in comparison to untreated controls. In the case of rice or harmful plants encountered in the cultivation of rice, the active compounds are also added directly to the irrigation water (application analogously to the so-called granule application) or sprayed onto the plants and into the irrigation water.
# [2] = test system: Triticum aestivum (spring wheat); experiment: Post-emergence herbicide action and safener action, spring wheat; details: TRZAS
# Description: as §1
# Zea mays (corn) [3] = experiment: Post-emergence herbicide action and safener action, corn; details: safener (Ia) 50 g of AS/ha, ZEAMX
# Description: as §1
# Oryza sativa (rice) [4] = experiment: Post-emergence herbicide action and safener action, rice; details: ORYSA
# Description: as §1
# Zea mays (corn) [5] = experiment: Pre-emergence herbicide action and safener action, corn; details: ZEAMX
# Description: (§2) The damage to the plants is scored visually using a scale of 0-100%, in comparison to control plants: 0%=no noticeable effect compared to the untreated plant 100%=the treated plants dies. Seeds or rhizome pieces of monocotyledonous and dicotyledonous weed plants and crop plants were placed in sandy loam soil in plastic pots and covered with soil. The herbicide/safener active compound combinations according to the invention, formulated as water-soluble powders or suspensions, and in parallel tests the individual active compounds formulated in a corresponding manner, were then, at various dosages at a water application rate of 300 to 800 l/ha (converted), applied to the surface of the covering soil. After the treatment, the pots were placed in the greenhouse and kept under good growth conditions for the weeds and the crop plants. Visual scoring of the plant damage or emergence damage was carried out after the test plants had emerged after a test period of 2 to 4 weeks, in comparison to untreated controls.
# Oryza sativa (rice) [6] = experiment: Pre-emergence herbicide action and safener action, rice; details: herbicide (2.2.16) oxadiazon 400 g of AS/ha, safener (Ia) 75 g of AS/ha, ORYSA
# Description: as §2
# Hordeum vulgare (barley) [7] = experiment: Seed treatment with safeners, barley; details: HORVU
# Description: (§3) The damage to the plants is scored visually using a scale of 0-100%, in comparison to control plants: 0%=no noticeable effect compared to the untreated plant 100%=the treated plants dies. Seeds of crop plants were mixed in bottles with the safeners according to the invention, formulated as suspension or emulsion concentrates, and water, and the mixture was shaken well so that the seeds were coated evenly with the formulation of the safener in question. The seeds or the emerged plants were then tested with herbicides in the pre- or post-emergence method according to the tests of examples 3.3 and 3.2, respectively.
# [8] = test system: Triticum aestivum (spring wheat); experiment: Seed treatment with safeners, spring wheat; details: safener (Ia) 1.0 g of AS/kg seed, TRZAS
# Description: as §3
# Zea mays (corn) [9] = experiment: Seed treatment with safeners, corn; details: ZEAMX
# Description: as §3
# [10] = test system: economically important harmful plants (weed grases and broad-leaved weeds); experiment: Post-emergence herbicide action against harmful plants in the presence of safener; details: in combination with safener
# Description: as §1
# [11] = test system: economically important harmful plants (weed grases and broad-leaved weeds); experiment: Pre-emergence herbicide action against harmful plants in the presence of safener; details: in combination with safener
# Description: as §2
# [12] = herbicide (1.2.1.58) thiencarbazone-methyl 15 g of AS/ha
smiles,measurement,setting,value
"NC(=O)c1ccc(C(F)(F)F)[nH]c1=O [safener (Ia), 2-oxo-6-trifluoromethyl-1,2-dihydropyridine-3-carboxamide]",Reduction of the harmful effect,Hordeum vulgare (barley) [1]; herbicide (1.1.1.10) tembotrione 20 g of AS/ha,category A (category A = 50-100% reduction of the harmful action)
same,Reduction of the harmful effect,Hordeum vulgare (barley) [1]; [12],category A (category A = 50-100% reduction of the harmful action)
same,Reduction of the harmful effect,Hordeum vulgare (barley) [1]; herbicide (1.3.1.20c) fenoxaprop-P-ethyl 400 g of AS/ha,category A (category A = 50-100% reduction of the harmful action)
same,Reduction of the harmful effect,"[2]; herbicide (1.1.1.10) tembotrione 20 g of AS/ha, safener (Ia) 80 g of AS/ha",category A (category A = 50-100% reduction of the harmful action)
same,Reduction of the harmful effect,"[2]; herbicide (1.1.2.10) picolinafen 200 g of AS/ha, safener (Ia) 100 g of AS/ha",category A (category A = 50-100% reduction of the harmful action)
same,Reduction of the harmful effect,"[2]; herbicide (1.2.1.14) mesosulfuron-methyl 40 g of AS/ha, safener (Ia) 80 g of AS/ha",category A (category A = 50-100% reduction of the harmful action)
same,Reduction of the harmful effect,"[2]; herbicide (1.2.1.58) thiencarbazone-methyl 15 g of AS/ha, safener (Ia) 100 g of AS/ha",category A (category A = 50-100% reduction of the harmful action)
same,Reduction of the harmful effect,"[2]; herbicide (1.3.1.20c) fenoxaprop-P-ethyl 100 g of AS/ha, safener (Ia) 20 g of AS/ha",category A (category A = 50-100% reduction of the harmful action)
same,Reduction of the harmful effect,"[2]; herbicide (2.2.12) flumioxazin 100 g of AS/ha, safener (Ia) 50 g of AS/ha",category B (category B = 20-49% reduction of the harmful action)
same,Reduction of the harmful effect,Zea mays (corn) [3]; herbicide (1.2.1.11b) iodosulfuron-methyl-sodium 100 g of AS/ha,category B (category B = 20-49% reduction of the harmful action)
same,Reduction of the harmful effect,Zea mays (corn) [3]; herbicide (1.2.1.48) imazethapyr 100 g of AS/ha,category A (category A = 50-100% reduction of the harmful action)
same,Reduction of the harmful effect,Zea mays (corn) [3]; herbicide (2.2.12) flumioxazin 50 g of AS/ha,category A (category A = 50-100% reduction of the harmful action)
same,Reduction of the harmful effect,"Oryza sativa (rice) [4]; herbicide (1.1.1.4) mesotrione 400 g of AS/ha, safener (Ia) 75 g of AS/ha",category A (category A = 50-100% reduction of the harmful action)
same,Reduction of the harmful effect,"Oryza sativa (rice) [4]; herbicide (1.1.1.4) mesotrione 600 g of AS/ha, applied to the water around the test plants (paddy rice conditions), safener (Ia) 75 g of AS/ha",category A (category A = 50-100% reduction of the harmful action)
same,Reduction of the harmful effect,"Oryza sativa (rice) [4]; herbicide (1.2.1.15) foramsulfuron 15 g of AS/ha, safener (Ia) 100 g of AS/ha",category B (category B = 20-49% reduction of the harmful action)
same,Reduction of the harmful effect,"Oryza sativa (rice) [4]; herbicide (1.2.1.58) thiencarbazone-methyl 10 g of AS/ha, safener (Ia) 300 g of AS/ha",category A (category A = 50-100% reduction of the harmful action)
same,Reduction of the harmful effect,"Oryza sativa (rice) [4]; herbicide (1.2.1.62b) bispyribac-sodium 200 g of AS/ha, safener (Ia) 75 g of AS/ha",category A (category A = 50-100% reduction of the harmful action)
same,Reduction of the harmful effect,"Oryza sativa (rice) [4]; herbicide (1.3.1.20c) fenoxaprop-P-ethyl 100 g of AS/ha, safener (Ia) 300 g of AS/ha",category A (category A = 50-100% reduction of the harmful action)
same,Reduction of the harmful effect,"Oryza sativa (rice) [4]; herbicides (1.2.1.14) mesosulfuron-methyl + (1.2.1.11b) iodosulfuron-methyl-sodium 4 + 0.8 g of AS/ha, safener (Ia) 150 g of AS/ha",category A (category A = 50-100% reduction of the harmful action)
same,Reduction of the harmful effect,"Zea mays (corn) [5]; herbicide (1.1.1.22) isoxaflutole 300 g of AS/ha, safener (Ia) 300 g of AS/ha",category A (category A = 50-100% reduction of the harmful action)
same,Reduction of the harmful effect,"Zea mays (corn) [5]; herbicide (1.4.4.17) flufenacet 125 g of AS/ha, safener (Ia) 150 g of AS/ha",category A (category A = 50-100% reduction of the harmful action)
same,Reduction of the harmful effect,Oryza sativa (rice) [6],category B (category B = 20-49% reduction of the harmful action)
same,Reduction of the harmful effect,"Hordeum vulgare (barley) [7]; herbicide (1.2.1.14) mesosulfuron-methyl 30 g of AS/ha, safener (Ia) 0.5 g of AS/kg seed",category A (category A = 50-100% reduction of the harmful action)
same,Reduction of the harmful effect,"Hordeum vulgare (barley) [7]; herbicide (1.2.1.58) thiencarbazone-methyl 15 g of AS/ha, safener (Ia) 1.0 g of AS/kg seed",category A (category A = 50-100% reduction of the harmful action)
same,Reduction of the harmful effect,[8]; herbicide (1.2.1.14) mesosulfuron-methyl 30 g of AS/ha,category A (category A = 50-100% reduction of the harmful action)
same,Reduction of the harmful effect,[8]; [12],category A (category A = 50-100% reduction of the harmful action)
same,Reduction of the harmful effect,"Zea mays (corn) [9]; herbicide (1.1.1.22) isoxaflutole 200 g of AS/ha, safener (Ia) 0.5 g of AS/kg seed",category A (category A = 50-100% reduction of the harmful action)
same,Reduction of the harmful effect,"Zea mays (corn) [9]; herbicide (1.2.1.58) thiencarbazone-methyl 5 g of AS/ha, safener (Ia) 1.0 g of AS/kg seed",category A (category A = 50-100% reduction of the harmful action)
same,action of the herbicide against economically important harmful plants,[10],"not, or not substantially, adversely affected"
same,action of the respective herbicide against economically important harmful plants,[11],"not, or not substantially, adversely affected"
"NC(=O)c1ccc(C(F)(F)Cl)[nH]c1=O [safener (Ib), 2-oxo-6-difluorochloromethyl-1,2-dihydropyridine-3-carboxamide]",action of the herbicide against economically important harmful plants,[10],"not, or not substantially, adversely affected"
same,action of the respective herbicide against economically important harmful plants,[11],"not, or not substantially, adversely affected"
"NC(=O)c1ccc(C(F)F)nc1O [safener (Ic), 2-oxo-6-difluoromethyl-1,2-dihydropyridine-3-carboxamide]",action of the herbicide against economically important harmful plants,[10],"not, or not substantially, adversely affected"
same,action of the respective herbicide against economically important harmful plants,[11],"not, or not substantially, adversely affected"
